This note sets out measurements from article PMC9607599, “Dual Targeting Ligands—Histamine H3 Receptor Ligands with Monoamine Oxidase B Inhibitory Activity—In Vitro and In Vivo Evaluation” (Pharmaceutics, 2022).

Assay [1] deals with T1, MAO B (Homo sapiens, UniProt P27338).
T1 sequence (P27338 1-520): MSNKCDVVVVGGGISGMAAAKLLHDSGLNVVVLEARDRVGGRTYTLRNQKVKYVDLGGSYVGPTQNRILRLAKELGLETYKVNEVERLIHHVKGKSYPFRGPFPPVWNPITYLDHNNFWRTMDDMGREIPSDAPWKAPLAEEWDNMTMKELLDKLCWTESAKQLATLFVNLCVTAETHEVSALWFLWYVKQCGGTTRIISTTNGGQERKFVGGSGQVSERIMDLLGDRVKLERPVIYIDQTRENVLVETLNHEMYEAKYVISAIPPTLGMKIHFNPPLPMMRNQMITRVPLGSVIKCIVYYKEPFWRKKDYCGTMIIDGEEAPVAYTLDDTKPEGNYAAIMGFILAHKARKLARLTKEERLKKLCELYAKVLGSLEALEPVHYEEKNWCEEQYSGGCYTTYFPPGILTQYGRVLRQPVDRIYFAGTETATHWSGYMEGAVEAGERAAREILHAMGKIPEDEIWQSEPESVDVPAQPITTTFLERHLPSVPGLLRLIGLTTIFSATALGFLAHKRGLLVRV
Kind of assay: reversibility of MAO B inhibition (reactivation by excess p-tyramine, with/without preincubation). To be noted: inhibitor at IC80. The class given is biochemical. The method, then:
The reversibility of the MAO inhibition was tested as described in [6, 7]. […] Two variants of experiment were performed. […] After 22 min, the concentration of the substrate was increased to 200 µM and the signal was measured for 5 h.

For assay [2], the system named is Wistar rats. Kind of assay: feeding behavior (food, water, urine) after sub-chronic administration in metabolic cages. The class given is in vivo, rat. To be noted: 3 mg/kg s.c. for 6 days, treatment period value (vs pre-treatment). How it is done: The compound 13 has been examined for its in vivo activity in rats. Male Wistar rats weighing 180–240 g at the beginning of the experiments were used for the study. Animals were individually housed in standard cages with liquid and food available ad libitum, under an artificial reversed 12-h light–dark cycle with light off at 7 a.m., temperature 21–22 °C and 60–65% humidity.
Before the start of the experiments, the animals were habituated for 7 days to the conditions in the animal facility. Pharmacological treatments were carried out in the dark phase of the cycle. During the drug administration, the rats were kept in metabolic cages (Tecniplast, Italy). After an additional one day adaptation, there was a 3-day pre-treatment phase.
(§1) The compound 13 was given to intact Wistar rats to verify its impact on the metabolism of biogenic amines in the brain (cerebral amines and their metabolites concentrations as well as activities of metabolizing enzymes). […] Both drugs (3 mg/kg body mass, dissolved in 0.9% NaCl) were given subcutaneously for 6 consecutive days. Control rats were injected with 200 μL of 0.9% NaCl.
The volumes of consumed food and water, as well as urine excretion, were recorded daily and expressed in g or mL per 100 g of body mass or mL per 24 h, respectively.
The final results are given as means with SEM calculated for each 24-h period, computed from 3-day (pre-treatment phase) or 6-day (pharmacological treatment) monitoring. All experimental procedures were undertaken according to EU directives and local ethical regulations.

The target in assay [3] is T2, HNMT in rat cerebral cortex (Rattus norvegicus, UniProt Q01984).
T2 construct: from tissue; host or cells: cerebral cortex of male Wistar rats
T2 sequence (Q01984 whole entry): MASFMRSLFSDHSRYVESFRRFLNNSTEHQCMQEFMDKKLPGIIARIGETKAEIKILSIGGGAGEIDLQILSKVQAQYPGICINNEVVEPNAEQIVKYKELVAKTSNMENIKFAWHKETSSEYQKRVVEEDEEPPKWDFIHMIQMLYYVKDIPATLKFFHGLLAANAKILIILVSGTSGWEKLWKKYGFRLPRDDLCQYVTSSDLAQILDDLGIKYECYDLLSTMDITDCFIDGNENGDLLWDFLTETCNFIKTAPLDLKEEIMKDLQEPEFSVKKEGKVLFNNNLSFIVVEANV
Kind of assay: histamine N-methyltransferase activity after sub-chronic administration (radioenzymatic). The class given is in vivo. To be noted: 3 mg/kg/day s.c. for 6 days. How it is done:
as §1
(§2) Tissues were collected and properly prepared for subsequent biochemical analyzes. The brain was quickly removed from the skull and the selected structures (hypothalamus, striatum, cerebral cortex) were dissected according to the method by Glowinsky and Iversen, immediately frozen in liquid nitrogen and kept at −80 °C until assayed.
Histamine N-methyltransferase activity was determined radioenzymatically according to Taylor and Snyder by measurements of radioactive N-tele-methylhistamine formed in a transmethylation reaction catalyzed by the enzyme, as previously described. S-adenosyl-L-(methyl-^14C)-methionine was used as a donor of methyl group.
The enzyme activities are expressed as pmol/min/mg protein. Protein concentration was analyzed by Lowry’s method.

Assay [4] has as its system rat brain (cerebral cortex, hypothalamus, striatum) monoamines. Kind of assay: HPLC-ED detection of monoamines and metabolites in rat brain tissue after sub-chronic administration. To be noted: for 5-HIAA/5-HT ratio / DOPAC/DA ratio / HVA/DA ratio / MHPG/NA ratio: mean ± SEM. The class given is in vivo. The method, then: as §1, §2
The concentration of dopamine (DA), serotonin (5-HT) and noradrenaline (NA) as well as their metabolites, i.e., 3,4-dihydroxyphenylacetic acid (DOPAC), homovanillic acid (HVA), 3-methoxy-4-hydroxyphenylglycol (MHPG) and 5-hydroxyindoleacetic acid (5-HIAA) was determined in striatum (STR), hypothalamus (HPT) and cerebral cortex (CTX) with the RP-HPLC-ED method.
Cerebral samples for HPLC analysis were homogenized using an ultrasonic homogenizer (Fisher BioBlock Scientific, France) for 15 s in 150 μL homogenization solution (0.1 M HClO4 containing 0.4 mM Na2S2O5), and centrifuged at 12,000 rpm for 15 min at 4 °C. At least 100 μL of the supernatant was transferred to chromatographic tubes and kept at –80 °C until analysis. Next, 20 μL of the filtrates was injected into the HPLC system.
The Agilent 1100 chromatographic system with Waters Spherisorb ODS-1 RP C-18 chromatographic column (4.6 × 250 mm) preceded by a Zorbax SB-C18 pre-column (4.6 × 12.5 mm) was used. Column temperature was set at 35 °C and mobile phase flow at 1 mL/min. The glassy carbon working electrode was set at +0.65 V, relative to the Ag/AgCl reference electrode. The mobile phase consisted of a phosphate buffer (3.4 pH) containing: 0.15 M NaH2PO4 x H2O, […] Na2EDTA, 0.5 mM Na2OSA, 0.5 mM LiCl and addition of methanol (10%). The chromatographic data were analyzed using ChemStation, Revision-B.03.02, Agilent software.
The concentrations of monoamines and their metabolites in each sample were calculated from the integrated chromatographic peak area and presented in nmol/gram of wet tissue. Additionally, the ratio of metabolites to their parent amines was calculated.

[5] abbreviates: cerebral cortex, 3 mg/kg s.c. for 6 days.
The mark [6] stands for this setting: not statistically significant, vs control.
Where [7] appears, read: striatum, 3 mg/kg s.c. for 6 days.

Consider `CC1CCCN1CCCOc1ccc(C(C)(C)C)cc1.O=C(O)C(=O)O` (stereo not drawn) [Compound 13, 1-(3-(4-(tert-Butyl)phenoxy)propyl)-2-methylpyrrolidine hydrogen oxalate], for which the “effect of 30 min preincubation on inhibition (preincubated vs non-preincubated)” value in assay [1] is reported as “did not show differences between the variants”. Moreover, the “reversibility of MAO B inhibition” value in assay [1] (excess p-tyramine 200 µM) was “reversible inhibition”. In assay [2], the food consumption turned out to be 8.61 ± 0.11 g/100 g bw, the urine output is listed as 8.90 ± 0.045 mL/24 h and the water consumption was 13.37 ± 0.31 mL/100 g bw/24 h. Besides, in assay [3], the HNMT activity is recorded as 40.09 ± 1.77 pmol/min/mg of protein. Moreover, in assay [4] (CTX, 3 mg/kg s.c. for 6 days), the 5-HIAA/5-HT ratio was 1.211 ± 0.202, the DOPAC/DA ratio is listed as 0.364 ±0.080 **^,## and the HVA/DA ratio is on record as 0.254 ± 0.015 *^,##. Also, in assay [4] (HPT, 3 mg/kg s.c. for 6 days), the 5-HIAA/5-HT ratio is 0.810 ±0.061, the DOPAC/DA ratio was found to be 0.359 ±0.117, the HVA/DA ratio worked out at 0.329 ± 0.091 and the MHPG/NA ratio amounted to 0.205 ±0.030. Moreover, in assay [4] (STR, 3 mg/kg s.c. for 6 days), the 5-HIAA/5-HT ratio is 2.456 ± 0.908, the DOPAC/DA ratio amounted to 0.207 ± 0.067, the HVA/DA ratio worked out at 0.486 ± 0.388 and the MHPG/NA ratio was 0.329 ± 0.057. Moreover, in assay [4] (setting [5]), the “5-HIAA level in CTX” value amounted to 1.320 ± 0.153 nmol/g wet tissue, the “5-HT level in CTX” value is listed as 1.194 ± 0.139 nmol/g wet tissue, the “DA content in CTX” value is listed as 1.777 ± 0.128 nmol/g wet tissue and the “DOPAC level in CTX” value is listed as 0.562 ± 0.093 nmol/g wet tissue. Moreover, in assay [4] (setting [5]), the “MHPG concentration in CTX” value is recorded as 0.897 ± 0.280 nmol/g wet tissue and the “NA concentration in CTX” value was 1.255 ± 0.152 nmol/g wet tissue. Moreover, in assay [4] (setting [6]), the “DA concentration in hypothalamus, in words” value is reported as “slight increase” and the “DOPAC concentration in hypothalamus, in words” value is listed as “decrease”. For the same molecule, in assay [4] (setting [7]), the “DA content in STR” value was 9.914 ± 1.718 nmol/g wet tissue and the “DOPAC level in STR” value came to 1.704 ± 0.187 nmol/g wet tissue. In addition, in assay [4] (vs control), the “5-HIAA level in hypothalamus, in words” value is “statistically significant decrease”; the “5-HT and 5-HIAA concentrations in the striatum, in words” value is recorded as “did not affect”; the “5-HT content in hypothalamus, in words” value is given as “no changes”; the “NA and MHPG concentration in the other examined brain structures (HPT, STR), in words” value is reported as “no differences were found”.
With `Clc1ccc(CCCOCCCN2CCCCC2)cc1` [Pitolisant, 3-(4-chlorophenyl)propyl 3-piperidinopropyl ether, reference compound], in assay [2], the food consumption is listed as 8.95 ± 0.14 g/100 g bw, the urine output was determined as 9.08 ± 0.49 mL/24 h and the water consumption came out at 14.16 ± 0.43 mL/100 g bw/24 h. For the same molecule, the HNMT activity in assay [3] is 42.51 ± 1.40 pmol/min/mg of protein. Also, in assay [4] (3 mg/kg s.c. for 6 days), the “content in brain tissue of the examined biogenic amines and their metabolites compared to control, in words” value is given as “did not show any differences”.
